Assays:
[1] = tested on: tumor cell lines with defects of the HR pathway; test: in vitro activity against tumor cell lines with defects of the HR pathway; type: cell-based
Excerpt: (§1) Inhibition of PARylation in the tumor tissues correlated well with tumor drug concentrations of Compound B.

[2] = tested on: MDA-MB-436 breast cancer; test: BRCA1-mutant mouse xenograft model (MDA-MB-436 breast cancer); type: in vivo
Excerpt: as §1

[3] = tested on: PARylation; test: PK/PD study, PARylation in MDA-MB-436 breast cancer xenografts; type: in vivo, mice; conditions: oral administration
Excerpt: as §1

[4] = tested on: H209-T small cell lung cancer xenografts; test: H209-T intracranial tumor model; type: in vivo, nude mice; conditions: single agent, 2.73 mg/kg BID
Excerpt: H209-T is a TMZ-resistant cell line generated by treating H209-xenografted tumors with multiple cycles of TMZ in vivo.

[5] = brain penetrance; conditions: in vivo
[6] = tested on: locally advanced or metastatic solid tumors; type: in vivo
Method: This dose-escalation/expansion study is enrolling pts using a modified 3+3 design to establish the safety and MTD of Compound B plus TMZ. During dose escalation, pts receive Compound B plus escalating doses of TMZ QD on Days 1-7 (Arm A) or continuously (Arm B) of each 28-day cycle. In Arm A and Arm B: Compound B was administered at the doses of 60 mg PO BID; TMZ was administered at 20 mg, 40 mg, 80 mg, 120 mg QD corresponds to 12 mg/m^2, 23 mg/m^2, 46 mg/m^2and 69 mg/m^2assuming an average body surface area of 1.73 m^2, respectively will be administered PO QD.
The primary endpoint is safety/tolerability, including estimation of MTD and RP2D. Key secondary endpoints are PK profiles of TMZ and Compound B and antitumor activity (RECIST v1.1) of combination treatment; biomarker (eg, gBRCA) assessment is exploratory.

[7] = tested on: newly diagnosed or recurrent/refractory glioblastoma (GBM); test: dose-escalation/expansion study of Compound B with RT and/or TMZ in GBM (Example 5); type: in vivo, human; conditions: across study arms, 15 patients
Method: This ongoing dose-escalation/expansion study was designed to determine the safety/tolerability and antitumor effects of Compound B (60 mg PO BID) in combination with RT and/or TMZ. The dose-escalation component consists of 3 arms:
(Arm A) Compound B (60 mg BID) at increasing exposures of 2, 4, or 6 weeks in combination with RT for 6 to 7 weeks, in newly diagnosed patients with GBM with unmethylated MGMT promoter (‘unmethylated GBM’)), and after RT is completed, subjects will receive no further study treatment;
(Arm B) Depending on the safety of the Arm A combination, Compound B in combination with RT for 6 to 7 weeks and increasing TMZ doses, in newly diagnosed patients with unmethylated GBM, and after RT is completed, subjects will receive no further study treatment;
(Arm C) Compound B in combination with increasing dose of TMZ administered on Days 1 to 21 of each 28-day cycle, in patients with recurrent/refractory methylated or unmethylated GBM.
In Arm A, Arm B and Arm C: Compound B was administered at the doses of 60 mg BID (PO); Radiation therapy (RT) was administered QD×5 days/week for 6 to 7 weeks with 1.8 to 2 Gy/fraction for a total dose of up to 60 Gy; flat-dosing was used for TMZ, and the first dose level of 40 mg QD corresponds to 23 mg/m^2 assuming an average body surface area of 1.73 m^2. […]

[8] = tested on: H209 small cell lung cancer xenograft; conditions: single agent, 2.73 mg/kg BID x 21 days
[9] = tested on: non-BRCA1/2-mutated cancers; conditions: cited from earlier work
[10] = tested on: PARP1/2; conditions: disclosed in WO2013/097225A1; cited from earlier work

C[C@]12CCCN1CC1=NNC(=O)c3cc(F)cc4[nH]c2c1c34 [Compound B, (R)-2-fluoro-10a-methyl-7,8,9,10,10a,11-hexahydro-5,6,7a,11-tetraazacyclohepta[def]cyclopenta[a]fluoren-4(5H)-one sesqui-hydrate]
in vitro activity as a single agent [1]: excellent in vitro activity
potency relative to olaparib ([2]; more potent than olaparib): 16 fold
anti-tumor activity ([2]; single agent): strong anti-tumor activity
inhibition of PARylation in xenografts [3]: time- and dose-dependent inhibition of PARylation
effect on tumor growth [4]: no significant effect on tumor growth
brain penetrance [5]: significant brain penetrance
most common drug-related AE: nausea (n pts) ([6]; 16 pts, Compound B 60 mg BID plus TMZ 20-120 mg QD): 6
plasma exposure ([6]; in combination): consistent with single-agent trials
Compound B-related AE fatigue (n patients) [7]: 5
Compound B-related AE nausea (n patients) [7]: 6
effect on tumor growth [8]: no significant effect on tumor growth

Cn1nnc2c(C(N)=O)ncn2c1=O [TMZ, temozolomide]
most common drug-related AE: thrombocytopenia (n pts) ([6]; human, in vivo): 5
MTD, TMZ ([9]; with 1 mg talazoparib): 37 mg/m^2

C[C@]12CCCN1CC1=NNC(=O)c3cc(F)cc4[nH]c2c1c34 [Compound A, (R)-2-fluoro-10a-methyl-7,8,9,10,10a,11-hexahydro-5,6,7a,11-tetraazacyclohepta[def]cyclopenta[a]fluoren-4(5H)-one]
PARP1/2 inhibitory activities [10]: highly selective and potent

Cn1ncnc1[C@H]1c2n[nH]c(=O)c3cc(F)cc(c23)N[C@@H]1c1ccc(F)cc1 [talazoparib]
MTD, talazoparib ([9]; plus 37 mg/m^2 of TMZ): 1 mg
